# US9657046B2, “Methods for the treatment and prevention of inflammatory diseases” (Children's Medical Center Corporation, priority 2010, dated 2017)
# Legend:
# [1] = tested on: pulmonary NKT cells; experiment: Lung NKT cell subsets (CD4+, DN) by FACS after i.p. glycolipid in 2 week-old mice; type: in vivo, mouse; details: i.p. PI57 50 μg or α-GalCer 2 μg, lung 2 wks later
# Description: In FIGS. 6A-6B, two-week-old BALB/c mice (n=6-8/group) (6A) or Tbet^−/− mice (6B) (n=4-6 per group) received 5 μg […] (cGal), 2 μg α-GalCer, or vehicle. After OVA sensitization and challenge, AHR was measured on day 44. In FIG. 6C, donor mice were treated with α-C-GalCer (5 μg) or vehicle i.p. NKT cells served as donors, as in FIG. 4A (n=4 per group). Lung resistance (left) and cell counts in BAL (right) were assessed. […] In FIG. 6E, mice received PI57 (50 μg), α-GalCer (2 μg), or vehicle i.p., and lungs were examined 1 or 14 days later for CD4 and CD8 expression. In FIG. 6F, absolute numbers of CD4^+ NKT and DN NKT subsets from 6E were assessed. In FIG. 6G, BALB/c mice (n=5-8/group) received PI57 or vehicle i.p. Lung resistance (left) and BAL cells (right) were assessed. In FIG. 6H, BALB/c mice treated with PI57 (50 μg), PBS30 (Sphingomonas glycolipid) (50 μg), or vehicle i.p. were assessed for AHR as in 6G. In FIG. 6I, donor mice were treated with PI57 (50 μg) or vehicle i.p. NKT cells served as donors as in FIG. 4A. Lung resistance (left) and BAL cells (right) were assessed (n=4 per group). […]
# Cells were preincubated with anti-Fey blocking mAb (2.4G2) and washed before staining. […] Cells were analyzed on a BDCanto flow cytometer (BD Biosciences) using FlowJo 8.3.3 software (Tree Star, Inc.).
# [2] = tested on: BALB/c mice; experiment: OVA-induced AHR in adult mice treated with glycolipid at 2 weeks of age; type: in vivo, mouse; details: 2 wk old mice treated i.p. (α-C-GalCer 5 μg, α-GalCer 2 μg, PI57 50 or 100 μg, PBS30 50 μg); AHR induced 6 wks (42 days) later
# Description: In FIGS. 6A-6B, two-week-old BALB/c mice (n=6-8/group) (6A) or Tbet^−/− mice (6B) (n=4-6 per group) received 5 μg […] (cGal), 2 μg α-GalCer, or vehicle. After OVA sensitization and challenge, AHR was measured on day 44. In FIG. 6C, donor mice were treated with α-C-GalCer (5 μg) or vehicle i.p. NKT cells served as donors, as in FIG. 4A (n=4 per group). Lung resistance (left) and cell counts in BAL (right) were assessed. […] In FIG. 6E, mice received PI57 (50 μg), α-GalCer (2 μg), or vehicle i.p., and lungs were examined 1 or 14 days later for CD4 and CD8 expression. In FIG. 6F, absolute numbers of CD4^+ NKT and DN NKT subsets from 6E were assessed. In FIG. 6G, BALB/c mice (n=5-8/group) received PI57 or vehicle i.p. Lung resistance (left) and BAL cells (right) were assessed. In FIG. 6H, BALB/c mice treated with PI57 (50 μg), PBS30 (Sphingomonas glycolipid) (50 μg), or vehicle i.p. were assessed for AHR as in 6G. In FIG. 6I, donor mice were treated with PI57 (50 μg) or vehicle i.p. NKT cells served as donors as in FIG. 4A. Lung resistance (left) and BAL cells (right) were assessed (n=4 per group). […] Data represent 2-3 independent experiments. *P<0.05, #P<0.05, ***P<0.001 versus vehicle-OVA (6C, 6G, and 6I), DN NKT saline (6F), and CD4^+ NKT saline (6F).
# Induction of AHR and measurement of airway responsiveness in the OVA model.
# To induce AHR, BALB/c mice were sensitized with 100 μg of OVA (Sigma-Aldrich) in alum administered i.p (on day 0). After sensitization, mice were exposed to intranasal antigen (50 μg OVA/day) or normal saline for 1 day (day 7; single dose challenge protocol), or for 3 consecutive days (days 7, 8, 9). AHR was assessed on the day after last OVA-challenge. Control mice received i.p. injection of PBS and intranasal administrations of normal saline.
# [3] = tested on: BM2a.3 cells; experiment: Human NKT cell clone on CD1d Fc-coated plates loaded with lipid, IFN-γ ELISA; type: cell-based; details: 5×10^4 NKT cells, 24 hours
# Description: In FIG. 7A, NKT cell lines were cocultured with BM-derived DCs (BMDCs) and α-GalCer (100 ng/ml), PI57 (10 μg/ml), or vehicle for 48 hours, with or without pre-incubation with anti-CD1d (10 μg/ml). IFN-γ was measured by ELISA. In FIG. 7B, murine NKT cell lines were cocultured as in 7A with BMDCs from WT, Cd1d^−/−, Myd88^−/−, or Trif^−/− mice. Cells were treated with α-GalCer (100 ng/ml), PI57 (2.5, 5, or 10 μg/ml), PBS30 (1, 2.5, or 5 μg/ml), or vehicle for 48 hours. IFN-γ and IL-4 were measured by ELISA. […] In FIG. 7D, mouse NKT cell lines were stained with PE-labeled CD1d tetramers of PI57 or α-GalCer at 4° C. for 45 minutes or 37° C. for 25 minutes, and with anti-TCRβ-APC antibody. Top: Lymphocytes were gated in the FSC/SSC window. Bottom: Percentage of CD1d tetramer+ cells. […] IFN-γ was analyzed by ELISA after 24 hours. […]
# Maxisorp plates (Nunc) were coated with PBS diluted recombinant human CD1d/β2 microglobulin Fc fusion proteins (0.5 μg/well; kindly provided by Dr. Jenny Gumperz (64) and anti-LFA-1 antibodies (0.05 μg/well, AbD Serotec) overnight at 4° C. After washing with PBS, immobilized CD1d was loaded with sonicated lipid antigens diluted in 25% DMSO/dH2O by overnight incubation at 37° C. After washing with PBS and culture media, NKT cells were added (5×10^4 cells/well) and culture supernatants were analyzed for IFN-γ by ELISA after overnight culture at 37° C.
smiles,measurement,setting,value
"CCCCCCCCCCCCCC(=O)OC[C@H]1O[C@H](O[C@H]2CC[C@@]3(C)C(=CC[C@H]4[C@@H]5CC[C@H]([C@H](C)CCCC(C)C)[C@@]5(C)CC[C@@H]43)C2)[C@H](O)[C@@H](O)[C@@H]1O [PI57, Cholesteryl 6-O-tetradecanoyl-α-D-glucopyranoside]",number of NKT cells (CD4+ and DN subsets) in the lung,[1],"increased the total number of NKT cells, particularly the number of DN NKT cells"
same,protection against development of OVA-induced AHR (lung resistance),[2],protected the mice from the development of OVA-induced AHR
same,IFN-γ induced by plate bound CD1d loaded with glycolipid,[3],induced IFN-γ in BM2a.3 cells
